In paper PMC6277434, “Discovery of a potent HMG-CoA reductase degrader that eliminates statin-induced reductase accumulation and lowers cholesterol” (Nature Communications, 2018):

What was measured:
LXR signaling pathway = test: RT-qPCR of LXR target genes (SREBP-1c, ABCA1, ABCG8) in Huh-7 cells; type: cell-based, human; conditions: 16 h
Method: Cells were treated as described in corresponding figure legends, then total RNA was extracted from cells or mouse livers using TRI Reagent (T9424, Sigma-Aldrich). Equal amounts of RNA from cells or mice receiving the same treatment were pooled were used for cDNA synthesis with oligo dT and reverse transcriptase MLV (Promega). Gene expression was analyzed by quantitative real-time PCR on a Stratagene Mx30005PTM Q-PCR Systems. The primers used were listed in Supplementary Tables 2–4. […]
pathway. a-c Huh-7 cells were treated with indicated compounds for 16 h and then harvested for total RNA isolation and RT-qPCR. Cells treated with LXR agonist T0901317 w ere used as positive controls. The relative mRNA levels of SREBP -1c (a), ABCA1 (b) and ABCG8 (c) were quantified . GAPDH was the reference gene. The relative mRNA level in DMSO-treated cells was defined as 1. Data are from 3 independent experiments and presented as mean ± SD.
(1 picture or pasted object on this page, not shown here)

HMGCR = target: T1, HMGCR (Cricetulus griseus, UniProt P00347); test: Immunoblotting of HMGCR in SRD-15 (Insig-1 and Insig-2-deficient) cells; type: cell-based, Chinese hamster; conditions: SRD-15 cells
T1 construct: endogenous in cells; host or cells: CHO-7, CHG, SRD-13A, SRD-15
T1 sequence (P00347 1-887): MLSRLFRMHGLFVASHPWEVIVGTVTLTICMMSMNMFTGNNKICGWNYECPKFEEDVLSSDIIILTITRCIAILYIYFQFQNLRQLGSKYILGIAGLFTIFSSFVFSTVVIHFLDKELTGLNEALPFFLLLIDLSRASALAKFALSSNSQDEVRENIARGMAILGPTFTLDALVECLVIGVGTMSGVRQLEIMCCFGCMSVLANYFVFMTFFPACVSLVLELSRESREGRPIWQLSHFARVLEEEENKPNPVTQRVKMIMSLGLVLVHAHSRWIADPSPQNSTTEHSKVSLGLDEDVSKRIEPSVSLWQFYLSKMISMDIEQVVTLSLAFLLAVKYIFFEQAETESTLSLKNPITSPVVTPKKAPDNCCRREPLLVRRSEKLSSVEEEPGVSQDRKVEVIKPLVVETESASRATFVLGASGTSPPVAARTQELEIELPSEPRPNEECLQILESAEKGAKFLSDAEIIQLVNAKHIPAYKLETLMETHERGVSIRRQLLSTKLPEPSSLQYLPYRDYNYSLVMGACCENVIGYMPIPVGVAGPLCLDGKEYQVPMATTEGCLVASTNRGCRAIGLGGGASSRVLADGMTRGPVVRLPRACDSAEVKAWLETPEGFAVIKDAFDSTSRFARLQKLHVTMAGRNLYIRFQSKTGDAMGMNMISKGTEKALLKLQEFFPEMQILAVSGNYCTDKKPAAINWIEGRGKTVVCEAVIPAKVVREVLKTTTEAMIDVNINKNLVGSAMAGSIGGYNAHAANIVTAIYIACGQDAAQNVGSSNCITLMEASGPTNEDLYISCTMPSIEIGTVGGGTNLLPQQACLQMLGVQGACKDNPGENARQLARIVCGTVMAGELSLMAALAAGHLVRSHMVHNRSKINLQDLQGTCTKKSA
Method: CHO-7 (Chinese hamster ovary cell, a clone of CHO-K1 cell line selected for growth in LPDS) and Huh7 (a human hepatocellular carcinoma cell line), SRD-13A (a Scap-deficient CHO-7 cell line) and SRD-15 (an Insig-1 and Insig-2-deficient CHO-7 cell line) were generous gifts from Russell Debose-Boyd at UT Southwestern Medical Center, USA. All cells were grown in a monolayer at 37 °C with 5% CO2. Huh7 cells were maintained in medium A supplemented with 10% FBS. CHO-7 and SRD-15 cells were maintained in medium B supplemented with 5% FBS. SRD-13A cells were maintained in medium B with 5% FBS, 5 μg ml^−1 cholesterol, 1 mM sodium mevalonate, 10 μM sodium oleate. No cell lines used in this study were found in the database of commonly misidentified cell lines that is maintained by ICLAC and NCBI Biosample. […]
Cells were harvested and homogenized in the RIPA buffer (50 mM Tris-HCl, pH 8.0, 150 mM NaCl, 2 mM MgCl2, 1.5% NP-40, 0.1% SDS, and 0.5% sodium deoxycholate) supplemented with protease cocktail inhibitor, 10 μM MG-132, 10 μg ml^−1 leupeptin and 1 mM phenylmethylsulfonyl fluoride. The protein concentrations of lysates were determined using BCA method (Beyotime). […] Western blot images were captured by Amersham Imager 600 (GE Healthcare), and integrated optical intensities of each band were quantified by Image-Pro Plus 6 software (Media Cybernetics). […]

HMGCR (TM1-8)-GFP = target: T2, HMGCR (TM1-8)-GFP (Cricetulus griseus, UniProt P00347)
T2 sequence (P00347 1-346): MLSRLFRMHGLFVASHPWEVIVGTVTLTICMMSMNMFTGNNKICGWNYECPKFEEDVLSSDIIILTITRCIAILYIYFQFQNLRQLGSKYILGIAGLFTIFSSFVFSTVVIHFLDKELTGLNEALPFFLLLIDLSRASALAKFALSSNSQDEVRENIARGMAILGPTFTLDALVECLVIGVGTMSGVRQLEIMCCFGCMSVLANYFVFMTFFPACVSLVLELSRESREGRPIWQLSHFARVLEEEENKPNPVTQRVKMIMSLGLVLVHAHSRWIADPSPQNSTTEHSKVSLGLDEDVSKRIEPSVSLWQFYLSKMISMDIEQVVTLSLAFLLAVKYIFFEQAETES

WT HMGCR = target: T3, WT HMGCR (Cricetulus griseus, UniProt P00347); test: Immunoblotting of overexpressed wild type HMGCR in Huh7 cells; type: cell-based; conditions: 1 µM lovastatin
T3 construct: expressed in transfected cells; host or cells: Huh7
T3 sequence (P00347 1-887): T1 sequence (P00347 1-887)
Method: Cells were harvested and homogenized in the RIPA buffer (50 mM Tris-HCl, pH 8.0, 150 mM NaCl, 2 mM MgCl2, 1.5% NP-40, 0.1% SDS, and 0.5% sodium deoxycholate) supplemented with protease cocktail inhibitor, 10 μM MG-132, 10 μg ml^−1 leupeptin and 1 mM phenylmethylsulfonyl fluoride. The protein concentrations of lysates were determined using BCA method (Beyotime). Samples were mixed with the membrane protein solubilization buffer (62.5 mM Tris-HCl, pH 6.8, 15% SDS, 8 M urea, 10% glycerol, and 100 mM DTT) plus the 4× loading buffer (150 mM Tris-HCl, pH 6.8, 12% SDS, 30% glycerol, 6% 2-mercaptoethanol, and 0.02% bromophenol blue) and incubated for 30 min at 37 °C. Proteins were resolved by SDS-PAGE and transferred to nitrocellulose membranes (GE Healthcare). Immnoblots were blocked with 5% non-fat milk in TBS containing 0.075% Tween-20 (TBST) and probed with indicated antibodies overnight at 4 °C. After washing in TBST for five times, blots were incubated with HRP-conjugated secondary antibodies for 2 h at room temperature. Immunoreactivity was developed with Clarity Western ECL chemiluminescent substrates (170–5061, Bio-Rad). Western blot images were captured by Amersham Imager 600 (GE Healthcare), and integrated optical intensities of each band were quantified by Image-Pro Plus 6 software (Media Cybernetics). […]
RT-qPCR. Quantifications of the relative mRNA levels of indicated SREBP target […]

C=CCC(O)(CC=C)CCCC(C)C1CCC2C3C(O)C=C4C(C)(C)C(O)CCC4(C)C3CCC12C (stereo not shown) [Cmpd 81]
expression of LXR target genes (SREBP-1c, ABCA1 and ABCG8) mRNA (LXR signaling pathway): did not induce the expression | Cmpd 81-induced disappearance of endogenous HMGCR in cells lacking Insig-1 and Insig-2 (HMGCR): completely abolished | DC50 (HMGCR (TM1-8)-GFP): 410 nM

CC[C@H](C)C(=O)O[C@H]1C[C@@H](C)C=C2C=C[C@H](C)[C@H](CC[C@@H]3C[C@@H](O)CC(=O)O3)[C@H]21 [Lovastatin, lovastatin]
elevation of overexpressed WT HMGCR protein (WT HMGCR): 6 fold
